Data on 15 molecules can be found in paper PMC3172044 (Biopharmaceutics & drug disposition, 2010).

The conditions of data set [1]: cited from earlier work.
For data set [2] the following is noted: read-out: apparent Km values for GLB metabolism; cited from earlier work.
Data set [3] has as its system human liver microsomes. Nature of the data set: Chemical inhibition of GLB metabolite formation in human liver microsomes. To be noted: GLB 1.25 μM; for effect on the formation of any of the four metabolites (M1, M2b, M4, M5): SUL […], QUI 0.45 μM, TTEPA 20 μM.
The test system of a further data set is CYP2C19. Conditions: cited from earlier work.
Data set [4] has as its system human liver microsomes.
For data set [5] the following is noted: cited from earlier work. The source holds these as a separate data set.
In a further data set the test system is CYP3A. To be noted: cited from earlier work.
Substrate in data set [6]: COc1ccc(Cl)cc1C(=O)NCCc1ccc(S(=O)(=O)NC(=O)NC2CCCCC2)cc1
Nature of the data set: cells, lysate or membranes named. Conditions: substrate depletion, 37.0 °C.

Where [7] appears, read: value stated to be within the range.
[8] abbreviates: 4 μM montelukast, no inhibitor = 100%.
Setting [9] is: 1 μM ketoconazole, no inhibitor = 100%.
Setting [10] is: other: CYP2C8 supersomes 40 pmol/ml.
[11] abbreviates: other: CYP3A5 supersomes 30 pmol/ml.
Setting [12] is: other: CYP2C19 supersomes 30 pmol/ml.

As a reminder, the Km is the substrate concentration at which the rate is half of its maximum. `COc1ccc(Cl)cc1C(=O)NCCc1ccc(S(=O)(=O)NC(=O)NC2CCCCC2)cc1` [glyburide, Glyburide]: the peak plasma concentration entry in data set [1] (after a single oral dose of 20 mg GLB) is given as “approximately 1.25 μM”. In data set [1] (setting [7]), the “free therapeutic plasma concentration” value is on record as “approximately 1.25 nM” and the “total therapeutic plasma concentration” value is roughly 0.125 µM. For the same molecule, the Km in data set [2] was 5 to 11 µM.
In the case of `CC(C)(O)c1ccccc1CC[C@@H](SCC1(CC(=O)O)CC1)c1cccc(/C=C/c2ccc3ccc(Cl)cc3n2)c1` [montelukast], in the data set with human liver microsomes [3] (setting [8]), the “formation of M1, % of the controls” value is “approximately 50%” and the “formation of M4, % of the controls” value is on record as roughly 65%.
One may read the Ki as a dissociation constant, usually derived from enzyme kinetics or from competition with a known ligand. As to `COc1ccc2[nH]c([S+]([O-])Cc3ncc(C)c(OC)c3C)nc2c1` (stereo not drawn) [omeprazole], the Ki in the data set on CYP2C19 was 3000 nM.
For the molecule “an ethyl hydroxycyclohexyl glyburide [M5]”, in the data set on human liver microsomes [4], the “relative metabolite formation in human liver microsome incubations” value is given as “major metabolite formed”.
For the molecule `COc1ccc(Cl)cc1C(=O)NCCc1ccc(S(=O)(=O)NC(=O)N[C@H]2CC[C@H](O)CC2)cc1` [M1, 4-trans-hydroxycyclohexyl glyburide], the “peak area of metabolite as % of that of M5” value with human liver microsomes [4] is recorded as “approximately 56%”. Also, the pharmacological activity entry in data set [5] is listed as “pharmacologically active”.
As to `Nc1ccc(S(=O)(=O)Nc2ccnn2-c2ccccc2)cc1` [Sulfaphenazole, sulfaphenazole], in the data set on human liver microsomes [3], the “effect on the formation of any of the four metabolites (M1, M2b, M4, M5)” value (“effect on the formation” for short) is “no significant effects”.
On to `COc1ccc(Cl)cc1C(=O)NCCc1ccc(S(=O)(=O)NC(=O)N[C@H]2CCC[C@@H](O)C2)cc1` (relative stereo) [M2b, 3-cis-hydroxycyclohexyl glyburide (axial)], for which the “peak area of metabolite as % of that of M5” value in the data set with human liver microsomes [4] is listed as roughly 43%. Besides, the pharmacological activity result in data set [5] is “pharmacologically active”.
With `C=C[C@H]1C[N@@]2CC[C@H]1C[C@@H]2[C@@H](O)c1ccnc2ccc(OC)cc12` [quinidine], the “effect on the formation” value in the data set on human liver microsomes [3] was “no significant effects”.
In the case of `CC(=O)N1CCN(c2ccc(OCC3COC(Cn4ccnc4)(c4ccc(Cl)cc4Cl)O3)cc2)CC1` (stereo not drawn) [ketoconazole], the Ki with CYP3A was […]. In addition, in the data set with human liver microsomes [3] (setting [9]), the “formation of M1, % of the controls” value was “approximately 60%”; the “formation of M4, % of the controls” value is reported as roughly 5%; the “formation of M5, % of the controls” value is roughly 4%.
Regarding `S=P(N1CC1)(N1CC1)N1CC1` [thioTEPA, triethylenethiophosphoramide], the “effect on the formation” value in the data set on human liver microsomes [3] was “no significant effects”.
In the case of `COc1ccc(Cl)cc1C(=O)NCCc1ccc(S(=O)(=O)NC(=O)N[C@@H]2CCCC[C@H]2O)cc1` (relative stereo) [M4, 2-trans-hydroxycyclohexyl glyburide], the “peak area of metabolite as % of that of M5” value in the data set with human liver microsomes [4] is given as roughly 8%.
With `COc1ccc(Cl)cc1C(=O)NCCc1ccc(S(=O)(=O)NC(=O)NC2CCCC(O)C2)cc1` (stereo not drawn) [M3, 3-trans-hydroxycyclohexyl glyburide], in the data set on human liver microsomes [4], the “peak area of metabolite as % of that of M5” value is roughly 16%.

B1: human CYP2C8 (Homo sapiens) (protein)
chain: MEPFVVLVLCLSFMLLFSLWRQSCRRRKLPPGPTPLPIIGNMLQIDVKDICKSFTNFSKVYGPVFTVYFGMNPIVVFHGYEAVKEALIDNGEEFSGRGNSPISQRITKGLGIISSNGKRWKEIRRFSLTTLRNFGMGKRSIEDRVQEEAHCLVEELRKTKASPCDPTFILGCAPCNVICSVVFQKRFDYKDQNFLTLMKRFNENFRILNSPWIQVCNNFPLLIDCFPGTHNKVLKNVALTRSYIREKVKEHQASLDVNNPRDFIDCFLIKMEQEKDNQKSEFNIENLVGTVADLFVAGTETTSTTLRYGLLLLLKHPEVTAKVQEEIDHVIGRHRSPCMQDRSHMPYTDAVVHEIQRYSDLVPTGVPHAVTTDTKFRNYLIPKGTTIMALLTSVLHDDKEFPNPNIFDPGHFLDKNGNFKKSDYFMPFSAGKRICAGEGLARMELFLFLTTILQNFNLKSVDDLKNLNTTAVTKGIVSLPPSYQICFIPV
In general, kcat refers to the number of substrate molecules converted per active site and unit of time at saturation. As usually defined, the kcat/Km is the second-order rate constant that governs catalysis at low substrate concentration. With B1, in data set [6] (setting [10]), the Km worked out at 7.7 ± 2.3 µM, the kcat was found to be 0.0417 ± 0.0133 s⁻¹ and the kcat/Km was found to be 5330 ± 500 M⁻¹ s⁻¹.

B2: human CYP3A5 (Homo sapiens) (protein)
chain: MDLIPNLAVETWLLLAVSLVLLYLYGTRTHGLFKRLGIPGPTPLPLLGNVLSYRQGLWKFDTECYKKYGKMWGTYEGQLPVLAITDPDVIRTVLVKECYSVFTNRRSLGPVGFMKSAISLAEDEEWKRIRSLLSPTFTSGKLKEMFPIIAQYGDVLVRNLRREAEKGKPVTLKDIFGAYSMDVITGTSFGVNIDSLNNPQDPFVESTKKFLKFGFLDPLFLSIILFPFLTPVFEALNVSLFPKDTINFLSKSVNRMKKSRLNDKQKHRLDFLQLMIDSQNSKETESHKALSDLELAAQSIIFIFAGYETTSSVLSFTLYELATHPDVQQKLQKEIDAVLPNKAPPTYDAVVQMEYLDMVVNETLRLFPVAIRLERTCKKDVEINGVFIPKGSMVVIPTYALHHDPKYWTEPEEFRPERFSKKKDSIDPYIYTPFGTGPRNCIGMRFALMNMKLALIRVLQNFSFKPCKETQIPLKLDTQGLLQPEKPIVLKVDSRDGTLSGE
Regarding B2, in data set [6] (setting [11]), the Km amounted to 4.2 ± 1.5 µM, the kcat worked out at 0.0317 ± 0.0122 s⁻¹ and the kcat/Km came out at 7670 ± 833 M⁻¹ s⁻¹.

B3: human CYP2C19 (Homo sapiens) (protein)
chain: MDPFVVLVLCLSCLLLLSIWRQSSGRGKLPPGPTPLPVIGNILQIDIKDVSKSLTNLSKIYGPVFTLYFGLERMVVLHGYEVVKEALIDLGEEFSGRGHFPLAERANRGFGIVFSNGKRWKEIRRFSLMTLRNFGMGKRSIEDRVQEEARCLVEELRKTKASPCDPTFILGCAPCNVICSIIFQKRFDYKDQQFLNLMEKLNENIRIVSTPWIQICNNFPTIIDYFPGTHNKLLKNLAFMESDILEKVKEHQESMDINNPRDFIDCFLIKMEKEKQNQQSEFTIENLVITAADLLGAGTETTSTTLRYALLLLLKHPEVTAKVQEEIERVIGRNRSPCMQDRGHMPYTDAVVHEVQRYIDLIPTSLPHAVTCDVKFRNYLIPKGTTILTSLTSVLHDNKEFPNPEMFDPRHFLDEGGNFKKSNYFMPFSAGKRICVGEGLARMELFLFLTFILQNFNLKSLIDPKDLDTTPVVNGFASVPPFYQLCFIPV
For B3, in data set [6] (setting [12]), the Km came to 15.1 ± 2.3 µM, the kcat is 0.16 ± 0.025 s⁻¹ and the kcat/Km stood at 10500 ± 333 M⁻¹ s⁻¹.
